Among the test systems are BT-549; UO-31; MOLT-4; NCI-H522; OVCAR-5; CCRF-CEM; HCC 2998; A549; U-251; K562; SN12C; CAKI-1; UACC-62; HCT-116; HCT-15; SF-268; OVCAR-8; HT-29; NCI-H226; SW-620.
Assay in all cases: NCI anticancer screen, dose series, 48 h

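How tested: cells in 96-well plates exposed to compound for 48 hours at five concentrations. Abbreviation: GI50, concentration required for 50% inhibition of growth.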 Activity calls are given as the source filed them. No stated cut-off is given here; in the data, active = GI50 up to about 1.1 µM and inactive = higher. Where only a bound is given, the exact number is not on record here.

Regarding `COc1c(-c2cccs2)oc2c(CC(=O)O)cccc2c1=O`, the GI50 in the experiment on BT-549 is > 100 µM (inactive); in the experiment with UO-31, 10.3 µM (inactive); in the experiment with MOLT-4 it was 56.9 µM (inactive); in the experiment with NCI-H522, > 100 µM (inactive); with OVCAR-5, > 100 µM (inactive); in the experiment on CCRF-CEM it was > 100 µM (inactive). The GI50 with HCC 2998, with A549, in the experiment with U-251, in the experiment with K562, in the experiment on SN12C and in the experiment on CAKI-1 was > 100 µM (inactive) throughout. The GI50 in the experiment on UACC-62 and in the experiment with HCT-116 was > 100 µM (inactive) in each case.
Turning to `Cc1ccc(NC(=O)C(=O)C(C#N)c2ccccc2C)cc1C` (stereo not given), the GI50 in the experiment with UO-31 is > 100 µM (inactive); with MOLT-4, > 100 µM (inactive); in the experiment on HCT-15, over 42.4 µM; with NCI-H522, > 92.5 µM (inactive); in the experiment with OVCAR-5 it was > 100 µM (inactive); in the experiment on SF-268, > 100 µM (inactive). In addition, the GI50 with CCRF-CEM was > 61.7 µM (inactive); with HCC 2998, > 54.3 µM (inactive); with OVCAR-8 it was > 100 µM (inactive); with HT-29, > 100 µM (inactive); in the experiment on A549, > 91.6 µM (inactive); in the experiment with U-251 it was > 77.3 µM (inactive). Further, the GI50 is > 44.9 µM (inactive) in the experiment with K562; > 100 µM (inactive) with SN12C; > 100 µM (inactive) in the experiment with CAKI-1; > 100 µM (inactive) in the experiment with UACC-62; > 100 µM (inactive) with NCI-H226; > 44.5 µM (inactive) with HCT-116. In addition, the GI50 in the experiment on SW-620 is > 41.8 µM (inactive).
Consider `O=C1C[C@H](c2ccc(O)c(O)c2)Oc2cc(O)cc(O)c21`, for which the GI50 in the experiment with UO-31 is 29.8 µM (inactive); in the experiment on MOLT-4, 74.5 µM (inactive); with HCT-15, over 100 µM; with NCI-H522 it was 11.6 µM (inactive); with OVCAR-5, > 100 µM (inactive); in the experiment with SF-268, 63.5 µM (inactive). Besides, the GI50 in the experiment on CCRF-CEM was 31.2 µM (inactive); in the experiment on HCC 2998, > 100 µM (inactive); with OVCAR-8 it was > 100 µM (inactive); with HT-29, > 100 µM (inactive); in the experiment with A549 it was > 100 µM (inactive); in the experiment on U-251, 82.4 µM (inactive). Also, the GI50 in the experiment on K562 is > 100 µM (inactive); with SN12C, > 100 µM (inactive); with CAKI-1 it was > 100 µM (inactive); in the experiment on UACC-62, 61.7 µM (inactive); with NCI-H226, > 100 µM (inactive); in the experiment on HCT-116 it was > 100 µM (inactive). Besides, in the experiment with SW-620, the GI50 was > 100 µM (inactive).
In the case of `O=C(O)c1nn[nH]c1S`, the GI50 with UO-31 is > 100 µM (inactive); with MOLT-4, > 100 µM (inactive); with HCT-15, over 100 µM; in the experiment with NCI-H522, > 100 µM (inactive); in the experiment on OVCAR-5, > 100 µM (inactive); in the experiment on SF-268, > 100 µM (inactive). For the same molecule, the GI50 in the experiment with CCRF-CEM, in the experiment with HCC 2998, in the experiment with OVCAR-8, with HT-29, with A549 and in the experiment with U-251 was > 100 µM (inactive) in each case. For the same molecule, the GI50 with K562, with SN12C, in the experiment with CAKI-1, with UACC-62, in the experiment with NCI-H226 and in the experiment with HCT-116 was > 100 µM (inactive) each time. In addition, in the experiment on SW-620, the GI50 was > 100 µM (inactive).
In the case of `CCS/C(=N\c1ccccc1)SC`, the GI50 was > 100 µM (inactive) in the experiment on UO-31; > 100 µM (inactive) with MOLT-4; over 100 µM in the experiment with HCT-15; > 100 µM (inactive) in the experiment with NCI-H522; > 100 µM (inactive) in the experiment on OVCAR-5; > 100 µM (inactive) in the experiment with SF-268. Also, the GI50 with CCRF-CEM, with HCC 2998, with OVCAR-8, in the experiment with HT-29, with A549 and with U-251 was > 100 µM (inactive) each time. The GI50 with K562, in the experiment with SN12C, in the experiment with CAKI-1, with UACC-62, in the experiment with NCI-H226 and with HCT-116 was > 100 µM (inactive) in each case. The GI50 in the experiment with SW-620 was > 100 µM (inactive).
Consider `COc1cc(C(=O)O)c(-c2cc3c(cc2C=O)OCO3)c(OC)c1OC`, for which the GI50 in the experiment with BT-549 is > 10 µM (inactive); with MOLT-4 it was > 10 µM (inactive); in the experiment on HCT-15 it was over 10 µM; in the experiment on NCI-H522, > 10 µM (inactive); with SF-268 it was > 10 µM (inactive); with CCRF-CEM, > 10 µM (inactive). Further, the GI50 in the experiment on HCC 2998, with OVCAR-8, with HT-29, in the experiment with A549, in the experiment with U-251 and with K562 was > 10 µM (inactive) in each case. In addition, the GI50 in the experiment with SN12C, with CAKI-1, in the experiment on UACC-62, in the experiment with HCT-116 and in the experiment with SW-620 was > 10 µM (inactive) throughout.
As for `CC(=O)C1=C(C)NC2C=CC=CN12` (stereo not given), the GI50 with UO-31 is > 100 µM (inactive); with MOLT-4, > 100 µM (inactive); in the experiment on HCT-15, over 100 µM; with NCI-H522 it was > 100 µM (inactive); with OVCAR-5 it was > 100 µM (inactive); in the experiment on SF-268, > 100 µM (inactive). For the same molecule, the GI50 in the experiment on CCRF-CEM, in the experiment on HCC 2998, in the experiment with OVCAR-8, with HT-29, in the experiment on A549 and with U-251 was > 100 µM (inactive) throughout. Further, the GI50 with K562, with SN12C, in the experiment with CAKI-1, in the experiment on UACC-62, in the experiment on NCI-H226 and with HCT-116 was > 100 µM (inactive) each time. For the same molecule, the GI50 in the experiment with SW-620 is > 100 µM (inactive).
For the molecule `N#CC(/C(CCCC(=O)Nc1cccc([N+](=O)[O-])c1)=N/NC(=O)c1cc2ccccc2cc1O)c1ccccc1` (stereo not given), the GI50 with UO-31 is 6.56 µM (inactive); in the experiment on MOLT-4 it was 14.6 µM (inactive); with HCT-15, 17.9 µM; in the experiment on NCI-H522, 23.1 µM (inactive); with OVCAR-5, 36.5 µM (inactive); in the experiment on SF-268, 48.1 µM (inactive). Further, the GI50 was 6.1 µM (inactive) in the experiment with CCRF-CEM; 36.6 µM (inactive) with HCC 2998; 17.5 µM (inactive) in the experiment with OVCAR-8; 36.4 µM (inactive) in the experiment with HT-29; 47.3 µM (inactive) in the experiment on A549; 34.6 µM (inactive) in the experiment with U-251. The GI50 in the experiment with K562 was 17.7 µM (inactive); with SN12C it was 35.6 µM (inactive); in the experiment with CAKI-1 it was 28 µM (inactive); in the experiment with UACC-62, 15.8 µM (inactive); in the experiment on NCI-H226, > 100 µM (inactive); in the experiment on HCT-116, 35.6 µM (inactive). Moreover, the GI50 in the experiment with SW-620 was 34.6 µM (inactive).
`CC(=O)Oc1ccc(O)c2c1CCCC2`: the GI50 is > 45.5 µM (inactive) in the experiment with UO-31; 12.1 µM (inactive) with MOLT-4; 13.4 µM with HCT-15; 13.6 µM (inactive) with NCI-H522; > 100 µM (inactive) in the experiment on OVCAR-5; 58.3 µM (inactive) with SF-268. Moreover, the GI50 is 10.2 µM (inactive) in the experiment on CCRF-CEM; > 100 µM (inactive) in the experiment with HCC 2998; 18 µM (inactive) with OVCAR-8; 35.7 µM (inactive) in the experiment on HT-29; > 100 µM (inactive) with A549; > 78.3 µM (inactive) in the experiment on U-251. In addition, the GI50 was 22.2 µM (inactive) with K562; > 45.4 µM (inactive) in the experiment with SN12C; 31.1 µM (inactive) in the experiment with CAKI-1; > 75.5 µM (inactive) in the experiment with UACC-62; > 100 µM (inactive) with NCI-H226; 18.4 µM (inactive) in the experiment on HCT-116. Besides, the GI50 in the experiment with SW-620 was 20.8 µM (inactive).
Regarding `C1CSC[C@H]2COC[C@@H](CSCCS1)S2`, the GI50 with BT-549 was > 100 µM (inactive); with UO-31 it was > 100 µM (inactive); in the experiment with MOLT-4, > 100 µM (inactive); in the experiment with HCT-15 it was over 100 µM; in the experiment on NCI-H522, > 100 µM (inactive); in the experiment with OVCAR-5 it was > 100 µM (inactive). For the same molecule, the GI50 with SF-268, in the experiment with CCRF-CEM, in the experiment with HCC 2998, in the experiment on OVCAR-8, in the experiment on HT-29 and in the experiment with A549 was > 100 µM (inactive) each time. In addition, the GI50 with U-251, in the experiment on K562, in the experiment with SN12C, in the experiment with HCT-116 and in the experiment on SW-620 was > 100 µM (inactive) throughout.
With `Cc1[nH]c(=O)[nH]c(=S)c1C(=O)NC(C)(CO)CO`, the GI50 in the experiment with UO-31 was > 100 µM (inactive); with MOLT-4 it was > 100 µM (inactive); with HCT-15 it was over 100 µM; with NCI-H522 it was > 100 µM (inactive); in the experiment with OVCAR-5, > 100 µM (inactive); with SF-268, > 100 µM (inactive). Besides, the GI50 with CCRF-CEM, with HCC 2998, in the experiment with OVCAR-8, in the experiment with HT-29, in the experiment with A549 and with U-251 was > 100 µM (inactive) throughout. The GI50 with K562, with SN12C, with CAKI-1, in the experiment on UACC-62, in the experiment on NCI-H226 and with HCT-116 was > 100 µM (inactive) each time. In the experiment on SW-620, the GI50 was > 100 µM (inactive).

For the origin of these results see ChEMBL document CHEMBL1201862, “PubChem BioAssay data set” (2004).
